# According to ChEMBL document CHEMBL4507327 (2021):
# Experiments:
# [1] = molecular target: Serine/threonine-protein kinase RIO2 (Homo sapiens, UniProt Q9BVS4); experiment: RIOK2(RIO2LGF1) Takeda global kinase panel
# Ephrin type-A receptor 3 = Ephrin type-A receptor 3 (Homo sapiens, UniProt P29320); experiment: EphA3(EPA3LGD5) Takeda global kinase panel
# [2] = molecular target: Serine/threonine-protein kinase Nek1 (Homo sapiens, UniProt Q96PY6); experiment: Nek1(NEK1LGY1) Takeda global kinase panel
# [3] = molecular target: Kappa-type opioid receptor (Homo sapiens) (UniProt P41145); details: Compound concentration 10.0 uM
# [4] = molecular target: Casein kinase II subunit alpha' (Homo sapiens, UniProt P19784); experiment: CK2alpha2(C2A2LGK1) Takeda global kinase panel
# [5] = molecular target: Bromodomain-containing protein 4 (Homo sapiens, UniProt O60885); experiment: BRD4(BRD4LGRC) Takeda global kinase panel
# [6] = molecular target: Serine/threonine-protein kinase tousled-like 1 (Homo sapiens, UniProt Q9UKI8); experiment: TLK1(TLK1LGP1) Takeda global kinase panel
# Ephrin type-A receptor 5 = Ephrin type-A receptor 5 (Homo sapiens, UniProt P54756); experiment: EphA5(EPA5MGF1) Takeda global kinase panel
# [7] = molecular target: T1, Muscarinic acetylcholine receptor M1 (Homo sapiens) (UniProt P11229); details: Compound concentration 10.0 uM
# T1 sequence (whole entry): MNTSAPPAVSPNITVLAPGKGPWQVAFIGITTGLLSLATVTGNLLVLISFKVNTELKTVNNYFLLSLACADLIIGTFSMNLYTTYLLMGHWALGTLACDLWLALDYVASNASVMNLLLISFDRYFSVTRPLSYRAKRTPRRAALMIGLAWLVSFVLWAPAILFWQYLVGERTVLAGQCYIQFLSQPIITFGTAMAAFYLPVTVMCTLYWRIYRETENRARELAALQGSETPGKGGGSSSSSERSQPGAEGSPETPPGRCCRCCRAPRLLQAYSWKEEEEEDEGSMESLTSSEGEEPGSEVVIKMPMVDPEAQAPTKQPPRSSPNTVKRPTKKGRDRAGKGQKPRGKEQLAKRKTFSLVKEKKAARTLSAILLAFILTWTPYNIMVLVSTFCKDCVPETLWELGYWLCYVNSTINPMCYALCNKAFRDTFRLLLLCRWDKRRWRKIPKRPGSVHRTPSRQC
# [8] = molecular target: Ribosomal protein S6 kinase alpha-1 (Homo sapiens, UniProt Q15418); experiment: RSK1 [p90RSK(R6A2CGE1)] Takeda global kinase panel
# [9] = molecular target: Mixed lineage kinase domain-like protein (Homo sapiens, UniProt Q8NB16); experiment: MLKL(MLKLPHY1) Takeda global kinase panel
# Mus musculus = organism: Mus musculus; experiment: Inhibition of Phorbol Ester at 10 µM in the Eurofins-Panlabs radioligand binding assay (Eurofins_assay_264500); parameters: ligand concentration 3 nM; details: Compound concentration 10.0 uM
# [10] = molecular target: Cyclin-dependent kinase 9 (Homo sapiens, UniProt P50750); experiment: CDK9(CDK9CGS1) Takeda global kinase panel
# [11] = molecular target: Bone morphogenetic protein receptor type-1A (Homo sapiens, UniProt P36894); experiment: BMPR1A(BM1APHRG) Takeda global kinase panel
# [12] = molecular target: Glutamate NMDA receptor (Rattus norvegicus) (UniProt P35439+Q00959+Q00960+Q00961+Q62645+Q8VHN2+Q9R1M7); details: Compound concentration 10.0 uM
# [13] = molecular target: Homeodomain-interacting protein kinase 2 (Homo sapiens, UniProt Q9H2X6); experiment: HIPK2(HIP2LGY1) Takeda global kinase panel
# [14] = molecular target: Serine/threonine-protein kinase PLK4 (Homo sapiens, UniProt O00444); experiment: PLK4(PLK4LGF1) Takeda global kinase panel
# Rattus norvegicus = organism: Rattus norvegicus; experiment: Inhibition of Rolipram at 10 µM in the Eurofins-Panlabs radioligand binding assay (Eurofins_assay_268811); format: protein assay; parameters: ligand concentration 1.8 nM; details: Compound concentration 10.0 uM
# Activin receptor type-2A = Activin receptor type-2A (Homo sapiens, UniProt P27037); experiment: ACtR2(AC2ALGE1) Takeda global kinase panel
# [15] = molecular target: Tyrosine-protein kinase Lck (Homo sapiens, UniProt P06239); experiment: Lck(LCK1LGF1) Takeda global kinase panel
# [16] = molecular target: Voltage-dependent N-type calcium channel subunit alpha-1B (Homo sapiens) (UniProt Q00975); experiment: Inhibition of Calcium Channel N-Type at 10 µM in the Eurofins-Panlabs radioligand binding assay (Eurofins_assay_216000); details: Rattus norvegicus; Compound concentration 10.0 uM
# [17] = molecular target: Myosin light chain kinase (Homo sapiens, UniProt Q32MK0); experiment: caMLCK(MYL3LGF1) Takeda global kinase panel
# [18] = molecular target: Casein kinase I isoform alpha (Homo sapiens, UniProt P48729); experiment: CK1alpha(C1A1PHY1) Takeda global kinase panel
# [19] = molecular target: Serine/threonine-protein kinase SBK1 (Homo sapiens, UniProt Q52WX2); experiment: SBK(SBK1LGY1) Takeda global kinase panel
# [20] = molecular target: Serine/threonine-protein kinase MARK1 (Homo sapiens, UniProt Q9P0L2); experiment: MARK1(MAR1PHY1) Takeda global kinase panel
# [21] = molecular target: Hormonally up-regulated neu tumor-associated kinase (Homo sapiens, UniProt P57058); experiment: HUNK(HUNKLGRN) Takeda global kinase panel
# [22] = molecular target: Ankyrin repeat and protein kinase domain-containing protein 1 (Homo sapiens, UniProt Q8NFD2); experiment: SgK288(ANK1LGRL) Takeda global kinase panel
# [23] = molecular target: Receptor tyrosine-protein kinase erbB-4 (Homo sapiens, UniProt Q15303); experiment: HER4(ERB4CGF1) Takeda global kinase panel
# [24] = molecular target: Cyclin-dependent kinase 17 (Homo sapiens, UniProt Q00537); experiment: PCTAIRE2(CD17SGS1) Takeda global kinase panel
# [25] = molecular target: Serine/threonine-protein kinase PINK1, mitochondrial (Homo sapiens, UniProt Q9BXM7); experiment: PINK1(PIN1PHRE) Takeda global kinase panel
# [26] = molecular target: Cyclin-dependent kinase 1 (Homo sapiens, UniProt P06493); experiment: CDC2 [CDK1(CDK1CGS1)] Takeda global kinase panel
# [27] = molecular target: Purinergic P2Y (Rattus norvegicus) (UniProt O35811+Q9EPX4+P49651+Q63371+P41232+O35881+Q6GUG4); experiment: Inhibition of Purinergic P2Y at compound concentration of 10.0 uM in the Eurofins-Panlabs radioligand binding assay (Eurofins_assay_268820); format: protein assay; parameters: ligand concentration 0.1 nM; details: Compound concentration 10.0 uM
# [28] = molecular target: Serine/threonine-protein kinase VRK1 (Homo sapiens, UniProt Q99986); experiment: VRK1(VRK1LGRI) Takeda global kinase panel
# [29] = molecular target: Serine/threonine-protein kinase pim-3 (Homo sapiens, UniProt Q86V86); experiment: Pim3(PIM3LGP1) Takeda global kinase panel
# [30] = molecular target: Mitogen-activated protein kinase kinase kinase 13 (Homo sapiens, UniProt O43283); experiment: LZK(M313LGRJ) Takeda global kinase panel
# [31] = molecular target: Protein-tyrosine kinase 2-beta (Homo sapiens, UniProt Q14289); experiment: PYK2(PT2BLHF1) Takeda global kinase panel
# [32] = molecular target: Neuropeptide Y receptor type 2 (Homo sapiens) (UniProt P49146); experiment: Inhibition of Neuropeptide Y Y2 at 10 µM in the Eurofins-Panlabs radioligand binding assay (Eurofins_assay_257110); details: Compound concentration 10.0 uM
# Mitogen-activated protein kinase kinase kinase 13, sequence (O43283 whole entry): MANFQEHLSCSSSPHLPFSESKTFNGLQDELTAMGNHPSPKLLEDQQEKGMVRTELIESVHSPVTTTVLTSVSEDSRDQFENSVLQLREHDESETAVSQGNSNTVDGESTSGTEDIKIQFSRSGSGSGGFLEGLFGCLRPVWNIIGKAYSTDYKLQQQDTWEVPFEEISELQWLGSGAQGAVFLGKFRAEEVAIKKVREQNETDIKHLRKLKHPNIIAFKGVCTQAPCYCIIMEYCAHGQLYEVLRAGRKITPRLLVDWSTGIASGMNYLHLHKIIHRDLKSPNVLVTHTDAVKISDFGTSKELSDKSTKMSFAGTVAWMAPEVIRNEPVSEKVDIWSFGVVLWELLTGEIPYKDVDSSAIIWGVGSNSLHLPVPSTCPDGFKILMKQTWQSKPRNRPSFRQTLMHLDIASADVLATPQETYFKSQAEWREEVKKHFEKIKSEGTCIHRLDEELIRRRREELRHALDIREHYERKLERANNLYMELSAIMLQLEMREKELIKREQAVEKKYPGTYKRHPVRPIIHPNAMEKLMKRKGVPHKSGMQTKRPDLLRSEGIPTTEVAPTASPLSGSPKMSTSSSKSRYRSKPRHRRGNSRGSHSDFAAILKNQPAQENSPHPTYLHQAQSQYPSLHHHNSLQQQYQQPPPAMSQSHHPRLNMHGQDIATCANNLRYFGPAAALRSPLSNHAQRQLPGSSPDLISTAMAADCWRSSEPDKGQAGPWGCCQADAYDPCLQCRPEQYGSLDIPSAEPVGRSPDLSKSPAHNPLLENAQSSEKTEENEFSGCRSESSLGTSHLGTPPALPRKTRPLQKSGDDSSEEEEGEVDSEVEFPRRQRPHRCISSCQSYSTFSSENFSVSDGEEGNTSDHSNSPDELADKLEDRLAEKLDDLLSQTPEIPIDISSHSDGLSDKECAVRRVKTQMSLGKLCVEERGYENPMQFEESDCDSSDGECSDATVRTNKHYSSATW
# Serine/threonine-protein kinase MARK1, sequence (Q9P0L2 whole entry): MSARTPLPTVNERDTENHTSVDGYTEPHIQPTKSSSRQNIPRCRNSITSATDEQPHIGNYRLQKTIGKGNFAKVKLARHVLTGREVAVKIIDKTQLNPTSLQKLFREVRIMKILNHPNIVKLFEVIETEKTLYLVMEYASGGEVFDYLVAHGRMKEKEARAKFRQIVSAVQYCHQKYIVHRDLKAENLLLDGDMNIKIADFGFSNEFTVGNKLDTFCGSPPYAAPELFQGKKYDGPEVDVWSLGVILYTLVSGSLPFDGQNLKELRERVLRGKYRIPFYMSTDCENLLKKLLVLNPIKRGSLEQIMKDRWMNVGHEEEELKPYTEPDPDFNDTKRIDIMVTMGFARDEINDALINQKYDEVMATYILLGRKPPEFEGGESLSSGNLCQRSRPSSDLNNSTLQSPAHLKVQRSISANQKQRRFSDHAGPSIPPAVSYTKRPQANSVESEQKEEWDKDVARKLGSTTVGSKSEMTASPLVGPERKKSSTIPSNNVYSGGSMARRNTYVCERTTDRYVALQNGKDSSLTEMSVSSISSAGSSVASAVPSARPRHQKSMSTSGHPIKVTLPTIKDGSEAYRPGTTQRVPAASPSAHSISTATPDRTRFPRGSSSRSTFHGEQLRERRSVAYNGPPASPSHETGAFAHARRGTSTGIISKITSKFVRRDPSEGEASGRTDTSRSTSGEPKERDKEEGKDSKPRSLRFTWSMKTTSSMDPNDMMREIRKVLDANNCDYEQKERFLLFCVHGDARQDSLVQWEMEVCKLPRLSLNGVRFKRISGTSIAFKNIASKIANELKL
# Serine/threonine-protein kinase Nek1, sequence (Q96PY6 whole entry): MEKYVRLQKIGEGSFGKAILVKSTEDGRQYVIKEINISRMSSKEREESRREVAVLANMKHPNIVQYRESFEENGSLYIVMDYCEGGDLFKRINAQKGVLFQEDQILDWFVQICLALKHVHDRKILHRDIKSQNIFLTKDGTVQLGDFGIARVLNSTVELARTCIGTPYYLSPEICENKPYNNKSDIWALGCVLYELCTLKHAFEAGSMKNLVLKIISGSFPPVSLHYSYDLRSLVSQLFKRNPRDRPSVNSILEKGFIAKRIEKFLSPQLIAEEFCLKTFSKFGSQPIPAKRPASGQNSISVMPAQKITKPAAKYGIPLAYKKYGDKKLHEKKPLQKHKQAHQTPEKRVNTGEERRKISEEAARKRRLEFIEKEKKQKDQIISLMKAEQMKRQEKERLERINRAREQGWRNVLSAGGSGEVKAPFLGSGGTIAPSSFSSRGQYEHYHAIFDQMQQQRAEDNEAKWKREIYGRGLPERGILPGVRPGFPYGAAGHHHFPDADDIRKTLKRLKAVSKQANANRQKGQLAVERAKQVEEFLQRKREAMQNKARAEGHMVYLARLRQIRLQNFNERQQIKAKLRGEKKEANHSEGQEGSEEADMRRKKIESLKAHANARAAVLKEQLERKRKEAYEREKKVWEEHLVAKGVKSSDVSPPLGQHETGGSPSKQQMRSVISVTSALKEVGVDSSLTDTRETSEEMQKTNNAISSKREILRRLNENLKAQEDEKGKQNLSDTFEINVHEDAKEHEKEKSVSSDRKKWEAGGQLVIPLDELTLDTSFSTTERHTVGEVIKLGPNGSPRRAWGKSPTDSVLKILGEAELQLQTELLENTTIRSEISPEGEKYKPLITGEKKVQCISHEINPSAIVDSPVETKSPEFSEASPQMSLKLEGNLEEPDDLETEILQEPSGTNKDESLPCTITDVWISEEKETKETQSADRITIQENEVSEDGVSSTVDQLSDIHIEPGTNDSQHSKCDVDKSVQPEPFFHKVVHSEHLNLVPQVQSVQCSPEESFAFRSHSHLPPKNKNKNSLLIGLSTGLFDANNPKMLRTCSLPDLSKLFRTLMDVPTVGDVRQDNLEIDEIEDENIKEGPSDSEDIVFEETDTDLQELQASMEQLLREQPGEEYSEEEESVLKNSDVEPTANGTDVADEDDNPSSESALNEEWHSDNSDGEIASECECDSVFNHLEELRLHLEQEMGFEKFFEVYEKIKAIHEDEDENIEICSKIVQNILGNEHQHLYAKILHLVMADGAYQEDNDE
# Serine/threonine-protein kinase RIO2, sequence (Q9BVS4 whole entry): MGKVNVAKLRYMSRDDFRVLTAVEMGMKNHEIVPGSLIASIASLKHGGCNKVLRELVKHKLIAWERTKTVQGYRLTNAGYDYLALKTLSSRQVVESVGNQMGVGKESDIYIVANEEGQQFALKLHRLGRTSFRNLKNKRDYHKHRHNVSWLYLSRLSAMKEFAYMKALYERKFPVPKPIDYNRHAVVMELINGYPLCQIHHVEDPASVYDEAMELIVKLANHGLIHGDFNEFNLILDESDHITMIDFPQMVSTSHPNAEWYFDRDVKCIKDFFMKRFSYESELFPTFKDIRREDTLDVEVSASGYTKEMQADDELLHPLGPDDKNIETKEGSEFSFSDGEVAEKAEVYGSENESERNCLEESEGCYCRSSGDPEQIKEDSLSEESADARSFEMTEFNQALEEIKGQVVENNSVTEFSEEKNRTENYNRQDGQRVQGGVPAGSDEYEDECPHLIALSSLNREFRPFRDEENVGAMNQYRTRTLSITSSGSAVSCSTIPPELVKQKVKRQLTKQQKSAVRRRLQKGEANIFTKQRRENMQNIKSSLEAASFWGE
# Myosin light chain kinase, sequence (Q32MK0 whole entry, canonical isoform): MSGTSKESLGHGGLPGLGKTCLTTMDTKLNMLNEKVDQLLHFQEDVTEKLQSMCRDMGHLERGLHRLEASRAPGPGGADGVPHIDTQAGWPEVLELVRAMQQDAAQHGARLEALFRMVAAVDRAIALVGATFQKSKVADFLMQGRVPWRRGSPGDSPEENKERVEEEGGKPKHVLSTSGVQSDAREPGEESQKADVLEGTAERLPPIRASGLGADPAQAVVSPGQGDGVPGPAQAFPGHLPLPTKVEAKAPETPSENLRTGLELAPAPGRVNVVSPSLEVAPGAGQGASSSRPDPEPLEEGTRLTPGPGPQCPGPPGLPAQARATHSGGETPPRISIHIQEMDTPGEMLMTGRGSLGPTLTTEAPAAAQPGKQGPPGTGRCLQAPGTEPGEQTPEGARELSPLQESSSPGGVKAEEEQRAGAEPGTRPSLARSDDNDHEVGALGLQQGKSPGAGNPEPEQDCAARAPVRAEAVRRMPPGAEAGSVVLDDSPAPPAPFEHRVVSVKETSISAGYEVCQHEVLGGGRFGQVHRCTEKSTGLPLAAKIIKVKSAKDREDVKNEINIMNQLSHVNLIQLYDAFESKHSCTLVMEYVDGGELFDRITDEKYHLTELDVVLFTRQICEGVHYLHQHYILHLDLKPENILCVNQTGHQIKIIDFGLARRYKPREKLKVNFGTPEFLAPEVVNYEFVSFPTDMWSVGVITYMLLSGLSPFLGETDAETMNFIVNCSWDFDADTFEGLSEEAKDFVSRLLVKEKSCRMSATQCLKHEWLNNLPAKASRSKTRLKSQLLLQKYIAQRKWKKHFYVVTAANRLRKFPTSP
# Cyclin-dependent kinase 17, sequence (Q00537 whole entry): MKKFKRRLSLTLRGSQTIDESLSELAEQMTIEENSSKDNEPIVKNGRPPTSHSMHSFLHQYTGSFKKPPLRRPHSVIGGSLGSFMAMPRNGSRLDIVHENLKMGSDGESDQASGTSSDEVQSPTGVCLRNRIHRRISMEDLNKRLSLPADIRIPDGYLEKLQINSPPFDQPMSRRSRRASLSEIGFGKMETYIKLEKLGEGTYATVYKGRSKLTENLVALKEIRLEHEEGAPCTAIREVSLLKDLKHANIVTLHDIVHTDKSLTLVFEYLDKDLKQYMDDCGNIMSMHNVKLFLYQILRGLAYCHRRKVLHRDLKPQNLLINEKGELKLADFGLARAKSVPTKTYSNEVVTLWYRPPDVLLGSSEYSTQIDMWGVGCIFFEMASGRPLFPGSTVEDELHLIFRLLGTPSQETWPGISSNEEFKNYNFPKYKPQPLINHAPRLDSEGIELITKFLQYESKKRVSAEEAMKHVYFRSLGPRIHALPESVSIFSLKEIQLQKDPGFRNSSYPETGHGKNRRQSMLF
Structure (SMILES),IC50 [1],IC50 (Ephrin type-A receptor 3),IC50 [2],inhibition [3],IC50 [4],IC50 [5],IC50 [6],IC50 (Ephrin type-A receptor 5),inhibition [7],IC50 [8],IC50 [9],inhibition (Mus musculus),IC50 [10],IC50 [11],inhibition [12],IC50 [13],IC50 [14],inhibition (Rattus norvegicus),IC50 (Activin receptor type-2A),IC50 [15],further results
CN1C(=O)[C@@H](N2CCc3cn(Cc4ccccc4)nc3C2=O)COc2ccccc21 [TP-030-1],1000 nM,1000 nM,1000 nM,3%,1000 nM,1000 nM,1000 nM,1000 nM,0%,1000 nM,1000 nM,-3%,1000 nM,1000 nM,0%,1000 nM,1000 nM,0%,1000 nM,1000 nM,inhibition [16]: -2%; IC50 [17]: 1000 nM; IC50 [18]: 1000 nM; IC50 [19]: 1000 nM; IC50 [20]: 1000 nM; IC50 [21]: 1000 nM; IC50 [22]: 1000 nM; IC50 [23]: 1000 nM; IC50 [24]: 1000 nM; IC50 [25]: 1000 nM; IC50 [26]: 1000 nM; inhibition [27]: -5%; IC50 [28]: 1000 nM; IC50 [29]: 1000 nM; IC50 [30]: 1000 nM; IC50 [31]: 1000 nM; inhibition [32]: 2%
CN1C(=O)[C@@H](N2CCc3cn(CC4CCS(=O)(=O)CC4)nc3C2=O)COc2ccccc21 [TP-030n],1000 nM,1000 nM,1000 nM,3%,1000 nM,1000 nM,1000 nM,1000 nM,2%,1000 nM,1000 nM,7%,1000 nM,1000 nM,-2%,1000 nM,1000 nM,1%,1000 nM,1000 nM,inhibition [16]: 2%; IC50 [17]: 1000 nM; IC50 [18]: 1000 nM; IC50 [19]: 1000 nM; IC50 [20]: 1000 nM; IC50 [21]: 1000 nM; IC50 [22]: 1000 nM; IC50 [23]: 1000 nM; IC50 [24]: 1000 nM; IC50 [25]: 1000 nM; IC50 [26]: 1000 nM; inhibition [27]: 8%; IC50 [28]: 1000 nM; IC50 [29]: 1000 nM; IC50 [30]: 1000 nM; IC50 [31]: 1000 nM; inhibition [32]: 1%
